Patent US5990137A, “Method of inhibiting NADPH oxidase” (Idun Pharmaceuticals, Inc., priority 1998, dated 1999)

Assays:
[1] = biological target: T1, Xanthine oxidase (Bos taurus, UniProt P80457); test: Xanthine oxidase assay (superoxide by hypoxanthine/xanthine oxidase, Lucigenin); assay type: biochemical; conditions: hypoxanthine 150 μM, buttermilk xanthine oxidase, 37° C.; for IC50: read-out: Xanthine Oxidase Inhibition IC50 (Integral)
T1 construct: purchased Sigma x-1875; host or cells: buttermilk

[2] = tested on: isolated neutrophils (opsonized zymosan-stimulated oxidative burst); test: Measurement of chemiluminescence of isolated neutrophils (neutrophil burst, Lucigenin); assay type: cell-based; conditions: for IC50 / Neutrophil Burst IC50 (Lucigenin): 14 min, opsonized zymosan, lucigenin, 37° C.
Description: Whole blood (150 ml) was anticoagulated with Acid Citrate Dextrose (ACD) using a ratio of 1:5 ACD to blood.
All steps are to be performed using polypropylene plastic ware.
a. Whole blood (60 ml) was added to each of three 100 ml polypropylene graduated cylinders containing 30 ml of […]. The cylinders were covered securely with Parafilm. The blood was allowed to sediment for approximately 1 hour at room temperature.
b. The turbid straw-colored layer was harvested from the top of the cylinders into 50 ml conical polypropylene tubes. The white blood cells were pelleted by centrifugation at 240×g (Sorvall at 1200 rpm) for 12 min. at 4° C. with the brake on low.
c. The supernatant was removed by aspiration and the pooled pellet resuspended in 4-50 ml cold PBS (w/o Ca, Mg). It was then centrifuged at 240×g (Sorvall at 1200 rpm) for 6 min. at 4° C. with the brake on high.
a. The supernatant was aspirated and the pellet resuspended in 12 ml of cold cell culture-grade water. The pellet was titrated gently with a pipet for exactly 30 seconds then 4 ml of cold 0.6 M KCl was added. It was then QSed to 50 ml with cold PBS (w/o Ca, Mg) and centrifuged at 300×g (Sorvall TY 6000D at 1400 rpm) for 6 min. at 4° C. with the brake on high.
b. Step 2.a. was repeated once more.
a. The supernatant was aspirated and the cells were resuspended in 2.5 ml cold PBS (w/o Ca, Mg). The cell suspension was carefully layered over 3 ml Ficoll-Hypaque in a 15 ml polypropylene conical tube. It was then centrifuged at 400×g (Sorvall at 1900 rpm) for 30 min. at 4° C. with the brake on low.
b. Aspiration occurred down to the neutrophil pellet. The pellet was resuspended fin cold PBS (w/o Ca, Mg) and transferred to a 50 ml conical tube. It was then QSed to 50 ml with cold PBS (w/o Ca, Mg) and centrifuged at 300×g (Sorvall at 1400 rpm) for 6 min. at 4° C. with the brake on high.
d. The supernatant was aspirated and the pellet resuspended in 50 ml cold PBS (w/o Ca, Mg) and centrifuged at 300×g (Sorvall at 1400 rpm) for 6 min. with the brake on high.
e. The supernatant was aspirated and the neutrophil pellet resuspended in 4.0 ml cold PBS (w/o Ca, Mg). It was kept on ice. Trypan blue (10 μl) was diluted (1:40) and the cells were counted using a hemacytometer. The cell number and viability by Trypan […] exclusion were determined and the results recorded. The cells were diluted to 5.0×10^6 cells/ml with cold PBS-G (with Ca, Mg) prior to plating for the assay.
2. […] The suspension was centrifuged and the particles resuspended in 7 ml of PBS-G (with Ca, Mg)(18 mg/ml). It was stored on ice until used (briefly vortexed prior to pipetting).
4. PBS-G (10 μl) (with Ca, Mg) was added to the wells in a white 96 well plate.
6. The compound dilutions (10 μl) were added to the appropriate wells.
7. The cell prep was diluted to 5.0×10^6 cells/ml with PBS-G (with Ca, Mg) in a separate multipipette trough.
8. The neutrophil suspension (20 μl) was added to the appropriate wells.
9. The plate was incubated at 37° C. for three minutes.
10. Zymosan (10 μl of 18 mg/ml) was added to the appropriate wells.
11. The plate was read on the luminometer (Labsystems Luminoskan, Needham Heights, Mass.) for 14 min. at 37° C. on the kinetic mode and the results recorded using the software DeltaSoft.
12. The plate data was exported into Excel to determine percent of control and derive the means and standard deviations for the data. The IC50 was determined graphically from the data and plotted using SigmaPlot. For cases where one concentration (50 μM) was tested, percent inhibition was compared to that seen with 50 μM apocynin.
13. The results are set forth below in Table 1 as "Neutrophil Burst IC50 (Lucigenin)". The results for 50 μM inhibition in the single assay are reported as "Neutrophil Burst Screen Value (% @ 50 μM)".

[3] = tested on: Jurkat cells; test: Cytotoxicity assay employing Jurkat cells (MTT); assay type: cell-based; conditions: Jurkat clone E6-1, MTT, 37° C. overnight
Description: This Assay was performed as set forth in Hansen et al., Journal of Immunological Methods, 119:203-210 (19930; Mosmann, Journal of Immunological Methods, 65:55-63 (1983); and Slater et al., Biochem. Ciophys. Acta, 77:383 (1963); except as noted below.
Compounds from the following Examples were tested for cytotoxicity using MTT (i.e., 3-[4,5-Dimethylthiazol-2-yl]-2,5-diphenyltetrazolium bromide; Thiazolyl Blue (Sigma, St. Louis, Mo.)).
MTT was dissolved in basal culture media at a concentration of 5 mg/ml. If necessary, it was briefly warmed at 37° C. to fully dissolve, passed through a sterile filter, and aliquoted and stored at -20° C. until use.
The Extraction Buffer used was a solution composed of 20% SDS, 2.5% Acetic Acid (80% 6 stock solution), 2.5% 1N Hcl, 50% Dimethylformamide/50% dissolved in distilled water, SDS was dissolved into buffer components with gentle heating and stirring and the resultant solution was filtered and stored until use.
The MTT solution was added in an amount equal to 10% of the culture volume to each well in a 96-well plate containing 100,000 Jurkat cells/well.
The wells were then incubated for 0.5 to 2 hours in standard culture conditions. A volume of extraction buffer equal to the culture volume was added. The 96-well plate was then sealed. The formazan crystals were allowed to extract at 37° C. for four hours. The plate was read on a spectrophotometer [Spectramax 250, Molecular Devices, Sunnyvale, Calif.] at an absorbance wavelength of 560 nm. (The background absorbance measured at 650 nm was subtracted from the value measured at 560 nm.)
The Jurkat cells (Jurkat clone E6-1) were grown using standard conditions supplied by ATCC (American Type Culture Collection--Rockville, Md.).
The compounds diluted in medium (RPMI 1640 plus 10% fetal bovine serum) stock solution of 100 μM, then this stock solution was further diluted 3-fold before testing in the instant assay.
2-Hydroxy-3-methoxy-E-nitrostyrene tested at 100 μM as death control cells, incubated under the above conditions at 37° C. overnight.
The Extraction Buffer (100 μl) was added to each well and the resultant suspension was incubated 4 hours at 37° C.
The results from this procedure are set forth above in Table 1 in the column marked "Cytotox (MTT/Jurkat)". […] Toxicity was rated "3" if dead cells and >50% reduction in MTT absorbance at 1 μM test compound.

T1 sequence (P80457 whole entry): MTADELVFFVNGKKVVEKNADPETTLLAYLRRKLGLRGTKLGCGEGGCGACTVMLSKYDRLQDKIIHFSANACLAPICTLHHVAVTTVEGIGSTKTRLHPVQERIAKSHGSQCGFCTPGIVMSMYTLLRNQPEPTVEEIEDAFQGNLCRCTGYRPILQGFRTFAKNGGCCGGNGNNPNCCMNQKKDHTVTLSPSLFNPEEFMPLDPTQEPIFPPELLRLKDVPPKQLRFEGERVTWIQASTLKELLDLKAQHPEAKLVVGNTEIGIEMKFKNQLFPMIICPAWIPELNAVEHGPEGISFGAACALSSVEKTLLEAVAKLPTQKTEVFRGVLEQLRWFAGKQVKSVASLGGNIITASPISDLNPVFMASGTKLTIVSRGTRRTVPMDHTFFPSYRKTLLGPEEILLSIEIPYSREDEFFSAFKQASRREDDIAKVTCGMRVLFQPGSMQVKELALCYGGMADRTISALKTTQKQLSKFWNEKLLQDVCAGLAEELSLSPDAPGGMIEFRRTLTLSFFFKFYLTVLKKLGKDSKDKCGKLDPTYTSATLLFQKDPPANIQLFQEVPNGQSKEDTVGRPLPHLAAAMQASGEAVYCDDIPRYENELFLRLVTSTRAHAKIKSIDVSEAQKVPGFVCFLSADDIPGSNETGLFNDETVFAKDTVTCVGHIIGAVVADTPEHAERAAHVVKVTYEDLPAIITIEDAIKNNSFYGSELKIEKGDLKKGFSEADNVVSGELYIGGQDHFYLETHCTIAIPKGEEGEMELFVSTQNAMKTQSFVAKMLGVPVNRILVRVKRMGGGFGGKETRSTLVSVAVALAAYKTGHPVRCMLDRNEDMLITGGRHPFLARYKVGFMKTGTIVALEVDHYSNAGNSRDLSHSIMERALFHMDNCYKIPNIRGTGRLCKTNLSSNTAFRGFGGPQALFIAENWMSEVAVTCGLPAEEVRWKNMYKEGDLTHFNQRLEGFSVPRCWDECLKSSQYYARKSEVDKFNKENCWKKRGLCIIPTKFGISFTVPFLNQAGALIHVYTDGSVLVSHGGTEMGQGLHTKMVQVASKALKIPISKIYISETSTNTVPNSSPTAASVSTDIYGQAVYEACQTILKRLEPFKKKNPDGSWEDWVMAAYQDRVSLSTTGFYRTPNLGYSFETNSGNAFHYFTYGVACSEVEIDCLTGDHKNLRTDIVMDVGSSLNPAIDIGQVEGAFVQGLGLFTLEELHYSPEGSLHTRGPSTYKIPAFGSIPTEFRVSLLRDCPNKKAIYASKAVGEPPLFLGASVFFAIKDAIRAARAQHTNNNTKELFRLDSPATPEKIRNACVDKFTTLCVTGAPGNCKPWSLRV

Compound | IC50 [1] [µM] | IC50 ([2]; Neutrophil) [µM] | Xanthine Oxidase Inhibition IC50 (Integral) [1] | Neutrophil Burst IC50 (Lucigenin) [2] | other results
COc1cc(/C(C)=N/N=C(\C)c2cc(OC)c(O)c(OC)c2)cc(OC)c1O [Example 9, Bis[3,5-Dimethoxy-4-Hydroxyacetophenone]trans,trans-Azine] | 20 | 8.7 |  |  | 
C(=N\N=C\c1ccncc1)/c1ccncc1 [Example 15, Bis[Pyridine-4-Carboxaldehyde]trans,trans-Azine] |  |  | No Effect | No Effect | 
COc1cc(C=Nc2nncs2)ccc1O [Example 22, 5-N'-(3-Methoxy-4-Hydroxybenzylidene)-5-Amino-1,3,4-Thiadiazole] | 16.3 | 15.5 |  |  | 
COc1ccc(/C=N/N=C/c2ccc(OC)cc2O)c(O)c1 [Example 3, Bis[2-Hydroxy-4-Methoxybenzaldehyde]trans,trans-Azine] |  |  | No Effect | No Effect | 
COc1ccc(/C=N/N=C/c2ccc(OC)c(OC)c2)cc1OC [Example 5, Bis[3,4-Dimethoxybenzaldehyde]trans,trans-Azine] |  |  | No Effect | No Effect | 
COc1cc(C=Nc2ccccc2)cc(OC)c1O [Example 23, N-(3,5-Dimethoxy-4-Hydroxybenzylidene)Aniline] | 14 | 5 |  |  | 
COc1cc(/C=N/N=C/c2cc(Br)c(O)c(OC)c2)cc(Br)c1O [Example 1, Bis[3-Bromo-4-Hydroxy-5-Methoxybenzaldehyde]trans,trans-Azine] |  | 38 |  |  | Cytotox (MTT/Jurkat) [3]: 0
COc1cc(C=Nc2ccc(F)cc2)cc(OC)c1O [Example 19, N-(3,5-Dimethoxy-4-Hydroxybenzylidene)-p-Fluoroaniline] | 28 | 13.2 |  |  | 
COc1cc(/C(C)=N/N=C(\C)c2ccc(O)c(OC)c2)ccc1O [Example 7, Bis[4-Hydroxy-3-Methoxyacetophenone]trans,trans-Azine] |  | 33.1 | No Effect |  | Cytotox (MTT/Jurkat) [3]: 1 (dead cells and >50% reduction in MTT absorbance were observed at 100 μM of the test compound)
COc1cccc(/C=N/N=C/c2cccc(OC)c2)c1 [Example 11, Bis[3-Methoxybenzaldehyde]trans,trans-Azine] |  |  | No Effect |  | 
COc1ccc(N=Cc2ccc(O)c(OC)c2)cc1 [Example 17, N-(3-Methoxy-4-Hydroxybenzylidene)-p-Methoxyaniline] |  | 3.1 | No Effect |  | Cytotox (MTT/Jurkat) [3]: 0
COc1cccc(/C=N/N=C/c2cccc(OC)c2OC)c1OC [Example 2, Bis[2,3-Dimethoxybenzaldehyde]trans,trans-Azine] |  |  | No Effect | No Effect | 
CC(C)(C)c1cc(/C=N/N=C/c2cc(C(C)(C)C)c(O)c(C(C)(C)C)c2)cc(C(C)(C)C)c1O [Example 14, Bis[3,5-(tert-Butyl)-4-Hydroxybenzaldehyde]trans,trans-Azine] |  |  | No Effect | No Effect | 
COc1cc(C=Nc2ccc(Br)cc2)cc(OC)c1O [Example 20, N-(3,5-Dimethoxy-4-Hydroxybenzylidene)-p-Bromoaniline] | 34 | 9.9 |  |  | 
COc1cc(/C=N/N=C/c2cc(OC)c(O)c(OC)c2)cc(OC)c1O [D, Bis[4-hydroxy-3,5-dimethoxybenzaldehyde]-trans,trans-azine] | 70 |  |  |  | Cytotox (MTT/Jurkat) [3]: 1 (dead cells and >50% reduction in MTT absorbance were observed at 100 μM of the test compound)
COc1cc(C=Nc2nncs2)cc(OC)c1O [Example 21, R-N'-(3,5-Dimethoxy-4-Hydroxybenzylidene)-5-Amino-1,3,4-Thiadiazole] | 2.1 | 8 |  |  | 
COc1cc(C=Nc2nccs2)ccc1O [B, 2-N'-(3-methoxy-4-hydroxybenzylidene)-2-amino-1,3-thiazole] |  |  |  |  | inhibition at 50 µM ([2]; Neutrophil, percent inhibition at 50 μM, single concentration, read-out: Neutrophil Burst Screen Value (% @ 50 μM)): 49.4%
COc1ccc(/C=N/N=C/c2ccc(OC)c(O)c2)cc1O [Example 4, Bis[3-Hydroxy-4-Methoxybenzaldehyde]trans,trans-Azine] |  |  | No Effect | No Effect | 
CCOc1cc(/C=N/N=C/c2ccc(O)c(OCC)c2)ccc1O [Example 8, Bis[3-Ethoxy-4-Hydroxybenzaldehyde]trans,trans-Azine] |  |  |  | No Effect | 
COc1ccc(N=Cc2cc(C(C)(C)C)c(O)c(C(C)(C)C)c2)cc1 [Example 16, N-(3,5-di(tert-Butyl)-4-Hydroxybenzylidene)-p-Methoxyaniline] |  |  | No Effect |  | Cytotox (MTT/Jurkat) [3]: 0
